Results published in the supplement of paper PMC10883282.

Legend:
Assay in all cases: relative viability vs DMSO control (72 h) (fraction); higher = more viable cells
[1] = tested on: HS729
Procedure, shortened: (§1)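 Sarcoma cell lines were grown in 384-well plates seeded toward 80–90% confluence and exposed 24 h later to serially diluted compound. After 72 h at 37 °C and 5% CO2, with 0.1% DMSO vehicle and a 5 µM positive control on the plates, ATPLite was read. Relative viability, given as percent growth averaged over up to triplicate wells, was rescaled so that 1 is full and 0 is none.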

[2] = tested on: KHOS-240S
Procedure, shortened: as §1

[3] = tested on: SYO-1
Procedure, shortened: as §1

[4] = tested on: MES-SA
Procedure, shortened: as §1

[5] = tested on: SW1353
Procedure, shortened: as §1

[6] = tested on: G401
Procedure, shortened: as §1

[7] = tested on: SW684
Procedure, shortened: as §1

[8] = tested on: SK-LMS-1
Procedure, shortened: as §1

[9] = tested on: A204
Procedure, shortened: as §1

[10] = tested on: SW982
Procedure, shortened: as §1

[11] = tested on: SW872
Procedure, shortened: as §1

[12] = tested on: SK-ES-1
Procedure, shortened: as §1

CCN(c1cc(-c2ccc(CN3CCOCC3)cc2)cc(C(=O)NCc2c(C)cc(C)[nH]c2=O)c1C)C1CCOCC1 [Tazemetostat]
Settings	relative viability
[1], 0.00017 µM	1.04
[1], 0.00051 µM	1.05
[1], 0.00152 µM	1.03
[1], 0.00457 µM	1.05
[1], 0.01372 µM	1.04
[1], 0.04115 µM	1.01
[1], 0.1235 µM	0.98
[1], 0.3704 µM	1
[1], 1.111 µM	0.938
[1], 3.333 µM	0.932
[1], 10 µM	0.892
[2], 0.00017 µM	1.02
[2], 0.00051 µM	1.031
[2], 0.00152 µM	1.03
[2], 0.00457 µM	1.03
[2], 0.01372 µM	1.01
[2], 0.04115 µM	1.03
[2], 0.1235 µM	1.01
[2], 0.3704 µM	0.9861
[2], 1.111 µM	0.9866
[2], 3.333 µM	0.975
[2], 10 µM	0.925
[3], 0.00017 µM	1.03
[3], 0.00051 µM	1
[3], 0.00152 µM	1.02
[3], 0.00457 µM	1
[3], 0.01372 µM	0.994
[3], 0.04115 µM	1.006
[3], 0.1235 µM	1
[3], 0.3704 µM	0.95
[3], 1.111 µM	0.953
[3], 3.333 µM	0.915
[3], 10 µM	0.873
[4], 0.00017 µM	1
[4], 0.00051 µM	0.988
[4], 0.00152 µM	0.9899
[4], 0.00457 µM	0.986
[4], 0.01372 µM	0.977
[4], 0.04115 µM	0.998
[4], 0.1235 µM	1
[4], 0.3704 µM	0.942
[4], 1.111 µM	0.933
[4], 3.333 µM	0.926
[4], 10 µM	0.874
[5], 0.00017 µM	1.08
[5], 0.00051 µM	1.04
[5], 0.00152 µM	1.065
[5], 0.00457 µM	1.08
[5], 0.01372 µM	1.05
[5], 0.04115 µM	1.09
[5], 0.1235 µM	1.05
[5], 0.3704 µM	1.04
[5], 1.111 µM	1.02
[5], 3.333 µM	1.02
[5], 10 µM	0.991
[6], 0.00017 µM	1.03
[6], 0.00051 µM	1.01
[6], 0.00152 µM	1
[6], 0.00457 µM	1.049
[6], 0.01372 µM	1.05
[6], 0.04115 µM	1.04
[6], 0.1235 µM	1
[6], 0.3704 µM	0.999
[6], 1.111 µM	1.01
[6], 3.333 µM	1.02
[6], 10 µM	1.01
[7], 0.00017 µM	1.05
[7], 0.00051 µM	1.092
[7], 0.00152 µM	1.11
[7], 0.00457 µM	1.1
[7], 0.01372 µM	1.12
[7], 0.04115 µM	1.12
[7], 0.1235 µM	1.12
[7], 0.3704 µM	1.11
[7], 1.111 µM	1.12
[7], 3.333 µM	1.14
[7], 10 µM	1.1
[8], 0.00017 µM	0.996
[8], 0.00051 µM	1.02
[8], 0.00152 µM	0.981
[8], 0.00457 µM	1
[8], 0.01372 µM	0.997
[8], 0.04115 µM	1.03
[8], 0.1235 µM	0.969
[8], 0.3704 µM	0.9897
[8], 1.111 µM	0.976
[8], 3.333 µM	0.969
[8], 10 µM	0.938
[9], 0.00017 µM	1.04
[9], 0.00051 µM	1.09
[9], 0.00152 µM	1.08
[9], 0.00457 µM	1.07
[9], 0.01372 µM	1.03
[9], 0.04115 µM	1.069
[9], 0.1235 µM	1.08
[9], 0.3704 µM	1.08
[9], 1.111 µM	1.08
[9], 3.333 µM	1.09
[9], 10 µM	1.05
[10], 0.00017 µM	0.968
[10], 0.00051 µM	0.988
[10], 0.00152 µM	0.977
[10], 0.00457 µM	0.98
[10], 0.01372 µM	0.973
[10], 0.04115 µM	1.02
[10], 0.1235 µM	0.985
[10], 0.3704 µM	0.951
[10], 1.111 µM	0.958
[10], 3.333 µM	0.926
[10], 10 µM	0.932
[11], 0.00017 µM	1.04
[11], 0.00051 µM	1.07
[11], 0.00152 µM	1.07
[11], 0.00457 µM	1.072
[11], 0.01372 µM	1.066
[11], 0.04115 µM	1.08
[11], 0.1235 µM	1.05
[11], 0.3704 µM	1.06
[11], 1.111 µM	1.02
[11], 3.333 µM	1.03
[11], 10 µM	1.02
[12], 0.00017 µM	1.03
[12], 0.00051 µM	1.01
[12], 0.00152 µM	0.982
[12], 0.00457 µM	0.993
[12], 0.01372 µM	0.972
[12], 0.04115 µM	1.03
[12], 0.1235 µM	1.009
[12], 0.3704 µM	0.998
[12], 1.111 µM	0.991
[12], 3.333 µM	0.961
[12], 10 µM	0.995

Cc1cccc(-c2[nH]c(CNc3ccccc3F)nc2-c2ccc3ncnn3c2)n1 [Vactosertib]
Settings	relative viability
[1], 0.00017 µM	0.964
[1], 0.00051 µM	0.969
[1], 0.00152 µM	0.938
[1], 0.00457 µM	0.962
[1], 0.01372 µM	0.928
[1], 0.04115 µM	0.939
[1], 0.1235 µM	0.882
[1], 0.3704 µM	0.849
[1], 1.111 µM	0.787
[1], 3.333 µM	0.73
[1], 10 µM	0.68
[2], 0.00017 µM	1.02
[2], 0.00051 µM	1.04
[2], 0.00152 µM	1.03
[2], 0.00457 µM	1.02
[2], 0.01372 µM	1.03
[2], 0.04115 µM	1
[2], 0.1235 µM	0.992
[2], 0.3704 µM	0.966
[2], 1.111 µM	0.952
[2], 3.333 µM	0.885
[2], 10 µM	0.708
[3], 0.00017 µM	0.9167
[3], 0.00051 µM	0.925
[3], 0.00152 µM	0.929
[3], 0.00457 µM	0.895
[3], 0.01372 µM	0.894
[3], 0.04115 µM	0.872
[3], 0.1235 µM	0.86
[3], 0.3704 µM	0.808
[3], 1.111 µM	0.773
[3], 3.333 µM	0.697
[3], 10 µM	0.591
[4], 0.00017 µM	0.892
[4], 0.00051 µM	0.881
[4], 0.00152 µM	0.885
[4], 0.00457 µM	0.866
[4], 0.01372 µM	0.877
[4], 0.04115 µM	0.901
[4], 0.1235 µM	0.894
[4], 0.3704 µM	0.897
[4], 1.111 µM	0.842
[4], 3.333 µM	0.873
[4], 10 µM	0.861
[5], 0.00017 µM	0.904
[5], 0.00051 µM	0.964
[5], 0.00152 µM	0.89
[5], 0.00457 µM	0.911
[5], 0.01372 µM	0.947
[5], 0.04115 µM	0.953
[5], 0.1235 µM	0.96
[5], 0.3704 µM	0.946
[5], 1.111 µM	0.968
[5], 3.333 µM	0.893
[5], 10 µM	0.875
[6], 0.00017 µM	0.942
[6], 0.00051 µM	0.937
[6], 0.00152 µM	0.969
[6], 0.00457 µM	0.984
[6], 0.01372 µM	0.97
[6], 0.04115 µM	0.937
[6], 0.1235 µM	0.9496
[6], 0.3704 µM	0.978
[6], 1.111 µM	0.9638
[6], 3.333 µM	0.967
[6], 10 µM	0.923
[7], 0.00017 µM	1.15
[7], 0.00051 µM	1.08
[7], 0.00152 µM	1.08
[7], 0.00457 µM	1.1
[7], 0.01372 µM	1.07
[7], 0.04115 µM	1.06
[7], 0.1235 µM	1.07
[7], 0.3704 µM	1.04
[7], 1.111 µM	1.08
[7], 3.333 µM	1.07
[7], 10 µM	1.11
[8], 0.00017 µM	0.968
[8], 0.00051 µM	0.963
[8], 0.00152 µM	0.981
[8], 0.00457 µM	0.982
[8], 0.01372 µM	0.984
[8], 0.04115 µM	0.978
[8], 0.1235 µM	0.95
[8], 0.3704 µM	0.918
[8], 1.111 µM	0.988
[8], 3.333 µM	0.992
[8], 10 µM	0.96
[9], 0.00017 µM	1.02
[9], 0.00051 µM	1.02
[9], 0.00152 µM	1.02
[9], 0.00457 µM	1.01
[9], 0.01372 µM	1.02
[9], 0.04115 µM	1.03
[9], 0.1235 µM	0.983
[9], 0.3704 µM	1.04
[9], 1.111 µM	1.03
[9], 3.333 µM	0.953
[9], 10 µM	0.822
[10], 0.00017 µM	0.9904
[10], 0.00051 µM	1.02
[10], 0.00152 µM	0.999
[10], 0.00457 µM	0.998
[10], 0.01372 µM	0.9987
[10], 0.04115 µM	1.03
[10], 0.1235 µM	1.01
[10], 0.3704 µM	0.984
[10], 1.111 µM	1
[10], 3.333 µM	1.02
[10], 10 µM	0.936
[11], 0.00017 µM	0.928
[11], 0.00051 µM	0.938
[11], 0.00152 µM	0.932
[11], 0.00457 µM	0.958
[11], 0.01372 µM	0.979
[11], 0.04115 µM	0.95
[11], 0.1235 µM	0.969
[11], 0.3704 µM	0.999
[11], 1.111 µM	1.06
[11], 3.333 µM	1.062
[11], 10 µM	1.02
[12], 0.00017 µM	0.986
[12], 0.00051 µM	0.97
[12], 0.00152 µM	0.98
[12], 0.00457 µM	0.974
[12], 0.01372 µM	1.02
[12], 0.04115 µM	1
[12], 0.1235 µM	1.04
[12], 0.3704 µM	1.02
[12], 1.111 µM	0.964
[12], 3.333 µM	1.01
[12], 10 µM	0.898
